# According to patent US20090280069A1, “PROGUANIL TO TREAT SKIN/MUCOSAL DISEASES” (Tolmar, Inc., priority 2008, published 2009):
# Test system: Streptococcus dysgalactiae subsp. equisimilis ATCC 6644
# Assay: time kill assay, S. dysgalactiae (Group G)
# Format: cell-based
# Experimental: Streptococcus dysgalactiae (Group G) infections can lead to skin diseases such as erysipelas and cellulitis. A time kill assay was used to test the effects of varying concentrations of proguanil on a culture of Streptococcus dysgalactiae subsp. equisimilis ATCC 6644. An inoculum of S. dysgalactiae was prepared and inoculated in vials containing Muller Hinton II broth and proguanil concentrations of 160, 80, 16, 8, and 1.6 μg/ml. A growth control using phosphate buffered saline A (PBSA) plus Mueller Hinton II broth was used in place of the drug because it has no antimicrobial effect. DGME was the solvent used to dissolve the proguanil, accordingly, 10% DGME was used as the solvent control. These inoculated broth solutions were then allowed to incubate for a period of 72 hours. Samples were taken at 0, 4, 24, 48 and 72 hours and spiral plated so the CFU/ml could be calculated. In the experiments, the effects of proguanil on the S. dysgalactiae were observed.
smiles,measurement,setting,value
"CC(C)NC(=N)NC(=N)Nc1ccc(Cl)cc1 [Proguanil, N-(4-Chlorophenyl)-N′-(1-methylethyl)imidodicarbonimidic diamide]",effect on CFU/ml,"80 μg/ml, time zero to 72 hours",only a slight increase in CFU/ml
same,effect on the bacteria,160 μg/ml,strong inhibition and killing effect
same,CFU/ml,"160 μg/ml, T=24, 48 and 72 hours",0 CFU/ml
same,Relative Sensitivity (Compared to Other Strains Tested),Streptococcus dysgalactiae (Group G) ATCC 6644,Sensitive
same,Approximate Inhibitory Level,"Streptococcus dysgalactiae (Group G) ATCC 6644, level at which partial or total inhibition of growth is observed",80 to 160 µg/mL
same,effect on CFU/ml,"all other concentrations (16, 8, 1.6 μg/ml)",very similar and near the CFU/ml of the Mueller Hinton II broth control
